Source: US11534412B2, “Application of totarol and pharmaceutical composition containing totarol” (Emergopharm SP. Z O.O. SP.K., priority 2017, dated 2022)

Test system: Lactobacillus gasseri - clinical strain
Assay: Determination of the MIC value of totarol, broth dilution in 96-well plates with OD and quantitative culture
Format: cell-based
Conditions: for OD, average of 3 measurements / OD: 620 nm
Experimental: Test of antibacterial activity of totarol using DMI (dimethylisosorbide) as a solvent.
A suspension of 0.5 McF in physiological saline (suspension density 10^8 cfu/ml) was prepared from a 24-hour culture of a standard strain. 1 ml of the suspension was collected to 9 ml of a TSB broth ([…]). Suspensions with a dilution of 10^−6 were prepared in the described way. A suspension with a cell density of 10^5 cfu/ml was selected for further investigations. For each strain, 2 96-well plates were prepared: the first one was intended for the OD measurement, the second one—for quantitative culture on solid media. • A/ to wells B1-D1, B2-D2 and B-D 4-11, 100 µl of the broth were added; • B/ to wells B3-D3, 200 µl of the broth were added; • C/ to wells B1-D1, 1 µl of stock I was added; • D/ to wells B2-D2, 1 µl of stock II was added; • E/ to wells B3-D3, 2 µl of stock III were added. Using a multichannel pipette, 100 µl of the sample were collected from each of the B3-D3 wells and placed in wells B4-D4 (mixing by sucking the content in and letting it out for 5 times). The pipette tips were replaced and 100 µl of the content were collected from of the B4-D4 wells, and placed in wells B5-D5, mixing as previously. These operations were repeated through the wells B11-D11. The content in the B11-D11 wells was mixed, and 100 µl of the fluid were collected and discarded. This way, a series of dilutions of totarol samples in DMI in the range of 0.32% to 0.0004% was obtained. Then, 100 µl of a corresponding bacterial culture were added to the wells B, C, D 1-11. In consequence, a change in the final concentration range occurred, to 0.16%-0.0002%. Control Preparation: • Negative control: 100 µl of the broth+1 pl DMI were added to the Al well. • Positive control (I): 100 µl of the broth with the bacterial culture were added to the wells E1-G1. • Diluent positive control (II): 100 µl of the broth with the bacterial culture+1 pl DMI were added to the wells E2-G2. The OD value in the individual wells was read at the wavelength of 620 nm (read time 0). From the second 96-well plate, a culture was inoculated by a quantitative method from every dilution onto a well with a proper solid medium, and incubated for 24 h at 37° C. under aerobic or anaerobic conditions, depending on the strain. The plates were incubated under aerobic conditions or in an atmosphere of an elevated CO2 concentration (for the strains requiring it) in an incubator at 37° C. The OD was read after 8 h, 16 h, and 24 h, respectively. Before every OD measurement, the contents of the wells were mixed delicately. In parallel to the OD readout, cultures we inoculated from the second 96-well plate, from every dilution, into plates with a proper solid medium, and incubated for 24 h at 37° C., under aerobic or anaerobic conditions. For the analysis of the experimental results, an average value of the OD measurement obtained from three repetitions in the individual times (0, 8, 16, and 24 h) for the individual microbes (Gardnerella vaginalis, Streptococcus agalactiae, Enterococcus faecalis, Lactobacillus gasseri/plantarum) was taken. Additionally, the number of bacteria grown on solid media was taken into account. The results of the tests confirm the specific, concentration-dependent selectiveness, and the high antibacterial effectiveness of totarol against the pathogenic microorganisms: Gardnerella vaginalis, Streptococcus agalactiae, Enterococcus faecalis at low MIC values safe for bacteria of the Lactobacillus genus.

- MIC value (L. gasseri): 0.04%
Structure (SMILES): CC(C)c1c(O)ccc2c1CC[C@H]1C(C)(C)CCC[C@]21C [Totarol, totarol]
- Inoculation cfu/ml (totarol 0.0002%, 0 h): 3.1 × 10^5 cfu/ml
- OD, average of 3 measurements (totarol 0.0002%, 0 h): 0.299
- Inoculation cfu/ml (totarol 0.0002%, 8 h): 2.1 × 10^5 cfu/ml
- OD, average of 3 measurements (totarol 0.0002%, 8 h): 0.302
- Inoculation cfu/ml (totarol 0.0002%, 16 h): 5.9 × 10^6 cfu/ml
- OD, average of 3 measurements (totarol 0.0002%, 16 h): 0.897
- Inoculation cfu/ml (totarol 0.0002%, 24 h): 2.9 × 10^7 cfu/ml
- OD (totarol 0.0002%, 24 h): 1.492
- Inoculation cfu/ml (totarol 0.0004%, 0 h): 5.1 × 10^5 cfu/ml
- OD, average of 3 measurements (totarol 0.0004%, 0 h): 0.296
- Inoculation cfu/ml (totarol 0.0004%, 8 h): 2.1 × 10^5 cfu/ml
- OD, average of 3 measurements (totarol 0.0004%, 8 h): 0.306
- Inoculation cfu/ml (totarol 0.0004%, 16 h): 3.9 × 10^6 cfu/ml
- OD, average of 3 measurements (totarol 0.0004%, 16 h): 0.915
- Inoculation cfu/ml (totarol 0.0004%, 24 h): 3.2 × 10^7 cfu/ml
- OD (totarol 0.0004%, 24 h): 1.484
- Inoculation cfu/ml (totarol 0.0007%, 0 h): 1.7 × 10^5 cfu/ml
- OD, average of 3 measurements (totarol 0.0007%, 0 h): 0.289
- Inoculation cfu/ml (totarol 0.0007%, 8 h): 1.9 × 10^5 cfu/ml
- OD, average of 3 measurements (totarol 0.0007%, 8 h): 0.299
- Inoculation cfu/ml (totarol 0.0007%, 16 h): 3.6 × 10^6 cfu/ml
- OD, average of 3 measurements (totarol 0.0007%, 16 h): 0.879
- Inoculation cfu/ml (totarol 0.0007%, 24 h): 3 × 10^7 cfu/ml
- OD (totarol 0.0007%, 24 h): 1.458
- Inoculation cfu/ml (totarol 0.0013%, 0 h): 3.8 × 10^5 cfu/ml
- OD, average of 3 measurements (totarol 0.0013%, 0 h): 0.298
- Inoculation cfu/ml (totarol 0.0013%, 8 h): 1.8 × 10^5 cfu/ml
- OD, average of 3 measurements (totarol 0.0013%, 8 h): 0.301
- Inoculation cfu/ml (totarol 0.0013%, 16 h): 4.1 × 10^6 cfu/ml
- OD, average of 3 measurements (totarol 0.0013%, 16 h): 0.879
- Inoculation cfu/ml (totarol 0.0013%, 24 h): 2.1 × 10^7 cfu/ml
- OD (totarol 0.0013%, 24 h): 1.457
- Inoculation cfu/ml (totarol 0.0025%, 0 h): 4.5 × 10^5 cfu/ml
- OD, average of 3 measurements (totarol 0.0025%, 0 h): 0.285
- Inoculation cfu/ml (totarol 0.0025%, 8 h): 1.5 × 10^5 cfu/ml
- OD, average of 3 measurements (totarol 0.0025%, 8 h): 0.302
- Inoculation cfu/ml (totarol 0.0025%, 16 h): 2.3 × 10^6 cfu/ml
- OD, average of 3 measurements (totarol 0.0025%, 16 h): 0.880
- Inoculation cfu/ml (totarol 0.0025%, 24 h): 2.3 × 10^7 cfu/ml
- OD (totarol 0.0025%, 24 h): 1.459
- Inoculation cfu/ml (totarol 0.005%, 0 h): 1.2 × 10^5 cfu/ml
- OD, average of 3 measurements (totarol 0.005%, 0 h): 0.292
- Inoculation cfu/ml (totarol 0.005%, 8 h): 2 × 10^5 cfu/ml
- OD, average of 3 measurements (totarol 0.005%, 8 h): 0.300
- Inoculation cfu/ml (totarol 0.005%, 16 h): 9.1 × 10^6 cfu/ml
- OD, average of 3 measurements (totarol 0.005%, 16 h): 0.843
- Inoculation cfu/ml (totarol 0.005%, 24 h): 2.1 × 10^7 cfu/ml
- OD (totarol 0.005%, 24 h): 1.387
- Inoculation cfu/ml (totarol 0.01%, 0 h): 3.9 × 10^5 cfu/ml
- OD, average of 3 measurements (totarol 0.01%, 0 h): 0.301
- Inoculation cfu/ml (totarol 0.01%, 8 h): 7 × 10^4 cfu/ml
- OD, average of 3 measurements (totarol 0.01%, 8 h): 0.297
- Inoculation cfu/ml (totarol 0.01%, 16 h): 5.3 × 10^6 cfu/ml
- OD, average of 3 measurements (totarol 0.01%, 16 h): 0.799
- Inoculation cfu/ml (totarol 0.01%, 24 h): 1.3 × 10^7 cfu/ml
- OD (totarol 0.01%, 24 h): 1.301
- Inoculation cfu/ml (totarol 0.02%, 0 h): 1.4 × 10^5 cfu/ml
- OD, average of 3 measurements (totarol 0.02%, 0 h): 0.305
- Inoculation cfu/ml (totarol 0.02%, 8 h): 1.4 × 10^5 cfu/ml
- OD, average of 3 measurements (totarol 0.02%, 8 h): 0.299
- Inoculation cfu/ml (totarol 0.02%, 16 h): 2.1 × 10^5 cfu/ml
- OD, average of 3 measurements (totarol 0.02%, 16 h): 0.753
- Inoculation cfu/ml (totarol 0.02%, 24 h): 1 × 10^5 cfu/ml
- OD (totarol 0.02%, 24 h): 1.208
- Inoculation cfu/ml (totarol 0.04%, 0 h): 4.6 × 10^5 cfu/ml
- OD, average of 3 measurements (totarol 0.04%, 0 h): 0.352
- Inoculation cfu/ml (totarol 0.04%, 8 h): 6 × 10^4 cfu/ml
- OD, average of 3 measurements (totarol 0.04%, 8 h): 0.335
- Inoculation cfu/ml (totarol 0.04%, 16 h): 4.5 × 10^3 cfu/ml
- OD, average of 3 measurements (totarol 0.04%, 16 h): 0.342
- Inoculation cfu/ml (totarol 0.04%, 24 h): 5 × 10^3 cfu/ml
- OD (totarol 0.04%, 24 h): 0.349
- Inoculation cfu/ml (totarol 0.08%, 0 h): 2.9 × 10^5 cfu/ml
- OD, average of 3 measurements (totarol 0.08%, 0 h): 0.526
- Inoculation cfu/ml (totarol 0.08%, 8 h): 1 × 10^4 cfu/ml
- OD, average of 3 measurements (totarol 0.08%, 8 h): 0.409
- Inoculation cfu/ml (totarol 0.08%, 16 h): 1.9 × 10^2 cfu/ml
- OD, average of 3 measurements (totarol 0.08%, 16 h): 0.463
- Inoculation cfu/ml (totarol 0.08%, 24 h): 1.2 × 10^2 cfu/ml
- OD (totarol 0.08%, 24 h): 0.472
- Inoculation cfu/ml (totarol 0.16%, 0 h): 6.5 × 10^5 cfu/ml
- OD, average of 3 measurements (totarol 0.16%, 0 h): 0.427
- Inoculation cfu/ml (totarol 0.16%, 8 h): 2.5 × 10^4 cfu/ml
- OD, average of 3 measurements (totarol 0.16%, 8 h): 0.411
- Inoculation cfu/ml (totarol 0.16%, 16 h): 3.1 × 10^1 cfu/ml
- OD, average of 3 measurements (totarol 0.16%, 16 h): 0.409
- Inoculation cfu/ml (totarol 0.16%, 24 h): 1 × 10^1 cfu/ml
- OD (totarol 0.16%, 24 h): 0.406
